Experimental data taken from patent US10759751B2, “Substituted spirocyclohexanes as muscarinic M1 receptor and/or M4 receptor agonists” (Heptares Therapeutics Limited, priority 2016, dated 2020).
Read-outs that look alike come from different tables or passages of the source.

Key:
Type in all cases: cell-based
[1] = target: T1, human muscarinic M1 receptor (Homo sapiens, UniProt P11229); assay: Alphascreen Surefire phospho-ERK1/2 functional assay, M1; conditions: for EC50: CHO cells stably expressing human M1, phospho-ERK1/2, read-out: pEC50 M1 (converted); for Emax: CHO
T1 sequence (P11229 1-460): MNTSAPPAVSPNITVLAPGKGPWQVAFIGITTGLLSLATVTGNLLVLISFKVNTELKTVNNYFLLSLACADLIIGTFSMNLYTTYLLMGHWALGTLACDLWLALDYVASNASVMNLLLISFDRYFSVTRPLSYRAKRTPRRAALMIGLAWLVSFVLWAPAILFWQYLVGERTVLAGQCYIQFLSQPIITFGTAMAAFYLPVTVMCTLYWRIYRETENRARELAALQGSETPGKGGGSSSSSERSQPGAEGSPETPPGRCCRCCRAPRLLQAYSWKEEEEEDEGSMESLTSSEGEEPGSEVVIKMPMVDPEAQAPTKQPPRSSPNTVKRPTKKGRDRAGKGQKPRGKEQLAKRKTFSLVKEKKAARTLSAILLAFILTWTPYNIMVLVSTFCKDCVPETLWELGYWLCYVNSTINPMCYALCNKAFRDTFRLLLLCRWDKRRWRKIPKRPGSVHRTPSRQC
Summary of the method: (§1)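 CHO cells stably expressing human M1, M2, M3 or M4 receptor, serum-starved overnight, then stimulated with agonist for 5 min at 37 °C. Phospho-ERK1/2 quantified in lysates by AlphaScreen SureFire. pEC50 and Emax derived per subtype.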

[2] = target: T2, human muscarinic M2 receptor (Homo sapiens, UniProt P08172); assay: Alphascreen Surefire phospho-ERK1/2 functional assay, M2; conditions: for EC50: CHO cells stably expressing human M2, phospho-ERK1/2, read-out: pEC50 M2 (converted); for Emax: CHO, read-out: M2 % Emax cf. ACh
T2 sequence (P08172 1-466): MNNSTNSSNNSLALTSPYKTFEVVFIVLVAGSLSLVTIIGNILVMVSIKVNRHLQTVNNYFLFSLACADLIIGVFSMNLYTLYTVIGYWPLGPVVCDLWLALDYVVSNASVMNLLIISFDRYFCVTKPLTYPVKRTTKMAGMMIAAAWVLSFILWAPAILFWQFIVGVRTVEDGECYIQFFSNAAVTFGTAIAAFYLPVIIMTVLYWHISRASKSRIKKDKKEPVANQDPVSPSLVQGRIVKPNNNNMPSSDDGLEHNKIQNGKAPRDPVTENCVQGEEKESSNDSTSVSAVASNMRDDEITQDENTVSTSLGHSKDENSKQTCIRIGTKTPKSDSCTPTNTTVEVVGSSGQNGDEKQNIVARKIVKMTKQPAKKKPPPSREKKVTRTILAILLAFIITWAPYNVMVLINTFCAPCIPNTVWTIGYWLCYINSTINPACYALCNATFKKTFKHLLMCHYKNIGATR
Summary of the method: as §1

[3] = target: T3, human muscarinic M3 receptor (Homo sapiens, UniProt P20309); assay: Alphascreen Surefire phospho-ERK1/2 functional assay, M3; conditions: for EC50: CHO cells stably expressing human M3, phospho-ERK1/2, read-out: pEC50 M3 (converted); for Emax: CHO, read-out: M3 % Emax cf. ACh
T3 construct: expressed in transfected cells
T3 sequence (P20309 whole entry): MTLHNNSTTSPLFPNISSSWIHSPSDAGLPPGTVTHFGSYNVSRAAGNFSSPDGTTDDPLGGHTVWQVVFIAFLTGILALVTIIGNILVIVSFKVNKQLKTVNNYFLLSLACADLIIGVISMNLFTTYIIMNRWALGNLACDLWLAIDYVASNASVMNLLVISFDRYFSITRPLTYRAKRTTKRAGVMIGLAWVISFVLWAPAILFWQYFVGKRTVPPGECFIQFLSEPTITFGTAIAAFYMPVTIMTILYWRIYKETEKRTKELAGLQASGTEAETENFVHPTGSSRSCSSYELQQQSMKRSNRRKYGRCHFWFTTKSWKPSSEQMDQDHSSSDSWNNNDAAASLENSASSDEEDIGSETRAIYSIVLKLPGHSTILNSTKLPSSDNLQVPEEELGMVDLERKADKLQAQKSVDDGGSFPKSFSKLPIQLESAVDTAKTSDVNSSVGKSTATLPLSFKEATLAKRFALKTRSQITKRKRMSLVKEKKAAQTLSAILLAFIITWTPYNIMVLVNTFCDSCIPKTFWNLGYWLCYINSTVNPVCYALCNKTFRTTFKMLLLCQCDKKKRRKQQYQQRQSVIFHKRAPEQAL
Summary of the method: as §1

[4] = target: T4, human muscarinic M4 receptor (Homo sapiens, UniProt P08173); assay: Alphascreen Surefire phospho-ERK1/2 functional assay, M4; conditions: for EC50: phospho-ERK1/2, read-out: pEC50 M4 (converted); for Emax: CHO
T4 construct: expressed in transfected cells
T4 sequence (P08173 1-479): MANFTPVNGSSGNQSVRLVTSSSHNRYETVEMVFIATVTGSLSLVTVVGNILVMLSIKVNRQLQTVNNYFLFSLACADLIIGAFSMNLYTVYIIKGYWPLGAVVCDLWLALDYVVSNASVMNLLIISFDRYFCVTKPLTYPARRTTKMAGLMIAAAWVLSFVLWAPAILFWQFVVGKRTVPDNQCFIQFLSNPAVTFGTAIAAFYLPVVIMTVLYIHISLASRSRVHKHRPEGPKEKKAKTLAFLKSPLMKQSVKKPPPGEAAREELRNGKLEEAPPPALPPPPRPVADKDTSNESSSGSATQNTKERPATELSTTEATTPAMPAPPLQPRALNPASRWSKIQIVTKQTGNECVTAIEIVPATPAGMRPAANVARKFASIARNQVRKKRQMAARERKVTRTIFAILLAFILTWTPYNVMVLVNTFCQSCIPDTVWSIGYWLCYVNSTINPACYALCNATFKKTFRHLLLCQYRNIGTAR
Summary of the method: as §1

[5] = read-out: M1 % Emax cf. ACh, CHO cells stably expressing human M1, Emax relative to ACh
[6] = CHO cells stably expressing human M4
[7] = read-out: M4 % Emax cf. ACh, CHO cells stably expressing human M4, Emax relative to ACh

EC50 [1] [nM] | Emax [1, 5] [%] | EC50 [2] [nM] | Emax [2] [%] | EC50 [3] [nM] | Emax [3] [%] | EC50 [4, 6] [nM] | Emax [4, 7] [%] | M4 % Emax cf. ACh ([4]; CHO cells stably expressing human M4, Emax relative to ACh) [%] | Compound | Emax ([1]; read-out: M1 % Emax cf. ACh) [%] | Emax ([4]; read-out: M4 % Emax cf. ACh) [%]
70.8 | 55 | > 20000 | 12 | > 20000 | 21 | 537 | 42 |  | COc1ccc2c(c1)C1(CCC(N3CCC[C@@H](c4nc(C)no4)C3)CC1)C(=O)N2 (single isomer, unassigned) [22-2 Isomer 1] |  | 
123 | 51 | > 20000 | 17 | > 20000 | 59 | 141 | 40 |  | Cc1ccc2c(c1)C1(CCC(N3CCC[C@@H](c4nc(C)no4)C3)CC1)C(=O)N2 (single isomer, unassigned) [22-3 Isomer 1] |  | 
79.4 | 76 | > 20000 | 20 | > 20000 | 17 | 219 | 39 |  | Cc1ccc2c(c1)NC(=O)C21CCC(N2CCC[C@@H](c3nc(C)no3)C2)CC1 (single isomer, unassigned) [22-4 Isomer 1] |  | 
15.1 | 74 | > 20000 | 22 | > 20000 | 7 | 40.7 | 50 |  | Cc1ccc2c(c1)C1(CCC(N3CCC4(CC(c5nc(C)no5)C4)C3)CC1)C(=O)N2 (single isomer, unassigned) [26-1 Isomer 2] |  | 
16.2 | 38 | > 20000 | 6 | > 20000 | 4 | 81.3 |  | 35 | COc1ccc2c(c1)C1(CCC(N3CCC4(CC(c5nc(C)no5)C4)C3)CC1)C(=O)N2 (single isomer, unassigned) [26-2 Isomer 1] |  | 
93.3 | 31 | > 20000 | 11 | > 20000 | 19 | 28.8 | 72 |  | CCc1noc(C2CC3(CCN(C4CCC5(CC4)C(=O)Nc4ccccc45)C3)C2)n1 (single isomer, unassigned) [26-3 Isomer 1] |  | 

Second part, the compound before the results:

Compound | EC50 [1] [nM] | Emax [1, 5] [%] | EC50 [2] [nM] | Emax [2] [%] | EC50 [3] [nM] | Emax [3] [%] | EC50 [4, 6] [nM] | Emax [4, 7] [%] | M4 % Emax cf. ACh ([4]; CHO cells stably expressing human M4, Emax relative to ACh) [%] | Emax ([1]; read-out: M1 % Emax cf. ACh) [%] | Emax ([4]; read-out: M4 % Emax cf. ACh) [%]
CCOC(=O)N1CCC2(CCN(C3CCC4(CC3)C(=O)Nc3ccccc34)CC2)C1 (single isomer, unassigned) [12-1 isomer 1] | 13.8 | 109 | > 20000 | 18 | > 20000 | 1 | 4.79 | 82 |  |  | 
CCOC(=O)N1CCC2(CCN(C3CCC4(CC3)C(=O)N(C(=O)OCC)c3ccccc34)CC2)C1 (single isomer, unassigned) [12-2 isomer 1] | 25.7 | 65 | > 20000 | 27 | > 20000 | 0 | 10.7 | 48 |  |  | 
CCOC(=O)N1CCC2(CCN(C3CCC(C#N)(c4ccccc4)CC3)CC2)C1 (single isomer, unassigned) [13-1 Isomer 2] | 0.447 |  | > 20000 | 21 | > 20000 | 7 | 0.145 |  |  | 121 | 121
CCOC(=O)N1CCC2CN(C3CCC(C#N)(c4ccccc4)CC3)CC21 (single isomer, unassigned) [15-1 Isomer 2] | 155 | 117 | > 20000 | 14 | > 20000 | 6 | 145 | 21 |  |  | 
CCOC(=O)N1CC2CN(C3CCC(C#N)(c4ccccc4)CC3)CCC21 (single isomer, unassigned) [17-1 Isomer 2] | 97.7 | 111 | > 20000 | 9 | > 20000 | 9 | 251 | 61 |  |  | 
Cc1noc([C@H]2CC[C@@H](NC3CCC(C#N)(c4ccccn4)CC3)C2)n1 (single isomer, unassigned) [19-1 Isomer 2] | 1740 | 45 | > 20000 | 21 | > 20000 | 8 | 224 | 83 |  |  | 
CCc1noc([C@H]2CC[C@@H](NC3CCC(C#N)(c4ccccc4)CC3)C2)n1 (single isomer, unassigned) [19-2 Isomer 2] | 191 | 118 | 2400 | 35 | > 20000 | 5 | 138 | 96 |  |  | 
N#CC1(c2ccccc2)CCC(N2CC3(CC(c4nc(C(F)(F)F)no4)C3)C2)CC1 (single isomer, unassigned) [20-1 Isomer 2] | 219 | 78 | > 20000 | 61 | > 20000 | 30 | 126 | 58 |  |  | 
Cc1noc(C2CC3(CCN(C4CCC(C#N)(c5ccccc5F)CC4)C3)C2)n1 (single isomer, unassigned) [21-2 Isomer 3] | 72.4 | 77 | > 20000 | 16 | > 20000 | 15 | 61.7 | 58 |  |  | 
Cc1noc([C@@H]2CCCN(C3CCC4(CC3)C(=O)Nc3ccccc34)C2)n1 (single isomer, unassigned) [22-1 Isomer 1] | 229 | 83 | > 20000 | 11 | > 20000 | 11 | 398 | 47 |  |  | 
O=C1Nc2ccccc2C12CCC(N[C@@H]1CC[C@H](c3nc(C(F)(F)F)no3)C1)CC2 (single isomer, unassigned) [24-1 Isomer 1] | 219 | 89 | > 20000 | 16 | > 20000 | 23 | 105 | 62 |  |  | 
CCc1noc(C2CC3(C2)CN(C2CCC4(CC2)C(=O)Nc2ccccc24)C3)n1 (single isomer, unassigned) [25-1 Isomer 1] | 617 | 43 | > 20000 | 13 | > 20000 | 6 | 155 | 70 |  |  | 
